This is an account of results in ChEMBL document CHEMBL5233210, “Pyrazolone structural motif in medicinal chemistry: Retrospect and prospect” (Eur J Med Chem, 2020).

In brackets after ≈: the same amount, converted by molar mass.

The test system of test [1] is Ehrlich. As to the kind of experiment: Cytotoxicity against mouse Ehrlich ascites cells assessed as dead cells at 100 ug/ml. The class given is functional. As to conditions: dose 100 µg/ml.
Test [2] relates to Ehrlich. The test can be described thus: Cytotoxicity against mouse Ehrlich ascites cells assessed as dead cells at 500 ug/ml. The following applies: dose 500 µg/ml. Format: functional.
In test [3] the test system is Ehrlich. As to the kind of experiment: Cytotoxicity against mouse Ehrlich ascites cells assessed as dead cells at 25 ug/ml. The class given is functional. As to conditions: dose 25 µg/ml.
For test [4], the system named is Rattus norvegicus. As to the kind of experiment: Antiinflammatory activity against rat assessed as inhibition of carrageenan-induced paw edema relative to control. The class given is functional. Set-up: concentration or dose not given beside the values.
The nature of test [5]: Antioxidant activity assessed as DPPH radical scavenging activity. The class given is functional.
The test system of the next test is MCF7. The test can be described thus: Cytotoxicity against human MCF7 cells. Format: functional, cell-based.
The species entered for the next test is Ovis aries. The test can be described thus: Selectivity index, ratio of IC50 for ovine COX-1 to IC50 for ovine COX-2.
A further test deals with Staphylococcus aureus. As to the kind of experiment: Antibacterial activity against Staphylococcus aureus. The class given is functional.
Test [6] deals with Bacillus subtilis. As to the kind of experiment: Antibacterial activity against Bacillus subtilis. Format: functional.
For another test, the system named is Streptococcus pyogenes. As to the kind of experiment: Antibacterial activity against Streptococcus pyogenes. Format: functional.
The test system of another test is Pseudomonas aeruginosa. The test can be described thus: Antibacterial activity against Pseudomonas aeruginosa. The class given is functional.
For test [7], the system named is Escherichia coli. As to the kind of experiment: Antibacterial activity against Escherichia coli. Format: functional.
Another test relates to Candida albicans. As to the kind of experiment: Antifungal activity against Candida albicans. The class given is functional.
Another test concerns Aspergillus niger. As to the kind of experiment: Antifungal activity against Aspergillus niger. Format: functional.
The subject of test [8] is Escherichia coli. As to the kind of experiment: Antibacterial activity against Escherichia coli assessed as diameter of inhibition zone at 100 ppm. The class given is functional. The following applies: read-out: DIZ.
In test [9] the test system is Bacillus subtilis. The test can be described thus: Antibacterial activity against Bacillus subtilis assessed as diameter of inhibition zone at 100 ppm. As to conditions: read-out: DIZ. Format: functional.
Test [10] in a line: Antioxidant activity assessed as ABTS radical scavenging activity. The class given is functional.
The test system of test [11] is Rattus norvegicus. As to the kind of experiment: Antiinflammatory activity against rat assessed as inhibition of carrageenan-induced paw edema. Format: functional.

Regarding `CC1=NNC(=O)/C1=N/Nc1sc2c(c1C(N)=O)CCCC2`, the Activity was 96.5% in the test with Ehrlich [1], 66.6% in the test on Ehrlich [2] and 38.1% in the test on Ehrlich [3].

Regarding `CC1=NN(c2ccc([N+](=O)[O-])cc2[N+](=O)[O-])C(=O)C1c1cc(-c2ccc(N(C)C)cc2)nc(N)n1` (centres undefined), the Activity in the test with Rattus norvegicus [4] amounted to 62.05%.

`Cc1c(/N=C/c2ccc(O)cc2O)c(=O)n(-c2ccccc2)n1C`: the IC50 in [5] is 20.1 µM.

For the molecule `Cc1c(-n2cc3c(N)nnc-3n(-c3ccccc3)/c2=N\N)c(=O)n(-c2ccccc2)n1C`, inhibition in the test with MCF7 was half-maximal at 45 µM (IC50).

As to `O=C1CC(Nc2ccccc2NC(=S)NC2CCCCC2)=NN1`, the Activity in the test with Rattus norvegicus [4] is 56%. Also, the Ratio IC50 in the test listed under Ovis aries worked out at 4.73.

Turning to `O=C1/C(=C\c2coc3ccc(Cl)cc3c2=O)C(C(F)(F)F)=NN1c1c(F)c(F)cc(F)c1F`, the minimal inhibitory concentration (MIC) with Staphylococcus aureus was 250 µg/mL (≈ 509 µM); with Bacillus subtilis [6] it was 250 µg/mL (≈ 509 µM); against Streptococcus pyogenes, 200 µg/mL (≈ 408 µM); against Pseudomonas aeruginosa, 62.5 µg/mL (≈ 127 µM); with Escherichia coli [7] it was 125 µg/mL (≈ 255 µM); against Candida albicans, 1000 µg/mL (≈ 2040 µM). The MIC against Aspergillus niger was 500 µg/mL (≈ 1020 µM).

In the case of `CC1=NN(C(=S)NN)C(=O)/C1=N/Nc1ccc(S(N)(=O)=O)cc1`, the minimal inhibitory concentration (MIC) with Escherichia coli [7] amounted to 125 µg/mL (≈ 352 µM); with Candida albicans it was 11.6 µg/mL (≈ 32.6 µM); with Aspergillus niger, 5.8 µg/mL (≈ 16.3 µM).

Consider `CCOC(=O)C1CCN(/C(Nc2ccccc2)=C2\C(=O)N(c3ccccc3)N=C2C)CC1`, for which the zone of inhibition at 100 µg/mL in the test with Escherichia coli [8] is 40 mm; in the test on Bacillus subtilis [9] it was 36 mm.

For `NC1=NNC(=O)C1C(CS(=O)(=O)Cc1ccccc1)c1ccccc1` (centres undefined), the MIC is 25 µg/mL (≈ 69.9 µM) against Staphylococcus aureus, 25 µg/mL (≈ 69.9 µM) with Bacillus subtilis [6] and 50 µg/mL (≈ 140 µM) against Aspergillus niger.

In the case of `Cc1c(N/C=C2\C(=N)N(c3ccccc3)N=C2N)c(=O)n(-c2ccccc2)n1C`, the IC50 in the test with MCF7 is 60.7 µM.

Consider `C/C(=N\c1c(C)n(C)n(-c2ccccc2)c1=O)c1cc(O)ccc1O`, for which the IC50 in test [5] amounted to 15.2 µM.

As to `Cc1c(/N=C/c2ccccc2)c(=O)n(-c2ccccc2)n1C`, in [5], the IC50 came to 31.3 µM.

Turning to `CC1=NN(c2nc(-c3ccccc3)cs2)C(=O)C1`, the Activity in test [10] came out at 85.7%.

`O=C1/C(=C2/CN(c3ccccc3)N=C2c2ccccc2)C(c2ccccc2)=NN1c1ccccc1`: the MIC is 10 µg/mL (≈ 22 µM) in the test with Bacillus subtilis [6], 4.08 µg/mL (≈ 8.98 µM) in the test with Escherichia coli [7] and 5.1 µg/mL (≈ 11.2 µM) in the test with Aspergillus niger.

Take `Cc1c(-n2cc(C#N)c(=O)n(-c3ccc(Br)cc3)c2=S)c(=O)n(-c2ccccc2)n1C`: in the test with MCF7, the IC50 amounted to 43.4 µM.

For `Cc1[nH]n(-c2ccccc2)c(=O)c1CNC(=S)Nc1ccccc1`, the Activity in the test on Rattus norvegicus [4] worked out at 91%. The Ratio IC50 in the test listed under Ovis aries was found to be 400. Moreover, the 50% effective dose (ED50) in the test on Rattus norvegicus [11] was determined as 102 mg/kg.

`Cc1c(-n2cc(C#N)c(=O)n(-c3ccccc3)/c2=N\c2ccccc2)c(=O)n(-c2ccccc2)n1C` showed a half-inhibitory concentration (IC50) in the test with MCF7 of 45 µM.

In turn, `Cc1c(-n2cc(C#N)c(=O)n(-c3ccccc3)c2=N)c(=O)n(-c2ccccc2)n1C` yielded an IC50 with MCF7 of 54.2 µM.

`CCCC1=NN(c2c(F)c(F)cc(F)c2F)C(=O)/C1=C\c1cn(-c2ccccc2)nc1-c1cccs1`: the MIC in the test with Staphylococcus aureus is 125 µg/mL (≈ 245 µM); with Bacillus subtilis [6] it was 125 µg/mL (≈ 245 µM); against Streptococcus pyogenes, 62.5 µg/mL (≈ 122 µM); against Pseudomonas aeruginosa, 250 µg/mL (≈ 490 µM); against Escherichia coli [7] it was 200 µg/mL (≈ 392 µM); against Candida albicans, more than 1000 µg/mL. Further, the MIC in the test on Aspergillus niger is more than 1000 µg/mL.

In the case of `COc1cc(-c2cc(C3C(=O)N(c4ccccc4)N=C3C)nc(N)n2)ccc1O` (centres undefined), the Activity in the test on Rattus norvegicus [4] was 61.23%.

As to `NS(=O)(=O)c1ccc(N/N=C2/C=NN(c3ccc(C(=O)O)cc3)C2=O)cc1`, in the test with Rattus norvegicus [4], the Activity stood at 72.72%. Besides, the ED50 in the test on Rattus norvegicus [11] amounted to 79 µmol/kg.

Regarding `C/C(=N\c1c(C)n(C)n(-c2ccccc2)c1=O)c1ccc(O)cc1O`, the half-maximal inhibitory concentration (IC50) in test [5] came to 19.1 µM.

For the molecule `O=C1O[C@H]([C@@H](O)CO)C(O)=C1O`, in test [10], the Activity stood at 88.2%.

Turning to `Cc1c(/N=C/c2cc(O)ccc2O)c(=O)n(-c2ccccc2)n1C`, the IC50 in test [5] stood at 17.1 µM.
